In patent publication US9273043B2, “TRPV1 antagonists including dihydroxy substituent and uses thereof” (Purdue Pharma L.P., priority 2011, dated 2016):
Marks after values point to notes of the source that are not given here.

What was measured:
[1] = tested on: neuropathic mechanical hyperalgesia after partial sciatic nerve ligation; assay: Seltzer model (partial sciatic nerve ligation) of neuropathic pain, paw withdrawal threshold; assay type: in vivo, rat; conditions: for % Reversal [mean ± SEM]: rat
Description: In the Seltzer model, the partial sciatic nerve ligation model of neuropathic pain was used to produce neuropathic hyperalgesia in rats (Seltzer et al., “A Novel Behavioral Model of Neuropathic Pain Disorders Produced in Rats by Partial Sciatic Nerve Injury,” Pain 43:205-218 (1990)). Partial ligation of the left sciatic nerve was performed under isoflurane/O2 inhalation anaesthesia. Following induction of anesthesia, the left thigh of the male, 6-7 week old Jcl:SD rat was shaved. The sciatic nerve was exposed at high thigh level through a small incision and was carefully cleared of surrounding connective tissues at a site near the trocanther just distal to the point at which the posterior biceps semitendinosus nerve branches off of the common sciatic nerve. A 7-0 silk suture was inserted into the nerve with a ⅜ curved, reversed-cutting mini-needle and tightly ligated so that the dorsal ⅓ to ½ of the nerve thickness was held within the ligature. The wound was closed with a single muscle suture (4-0 nylon (Vicryl)) and vetbond tissue glue. The wound area was then dusted with antibiotic powder. Sham treatment involved an identical surgical procedure except that the sciatic nerve was not manipulated or ligated.
Following surgery, animals were weighed and placed on a warm pad until they recovered from anesthesia. Animals were then returned to their home cages until behavioral testing began. The animal was assessed for response to noxious mechanical stimuli by determining PWT for the rear paw of the animal, as described below, prior to surgery (baseline), then immediately prior to and 1, 3, 5, 7, and 24 hours after oral drug-in-vehicle administration (for day 1). Thus, the 24 hour time point was the start of the next day when drug-in-vehicle was again orally administered (24 hours after the prior administration). On days 2 and 3, PWT response was determined 1, 3, and 24 hours thereafter. Percentage reversal of neuropathic hyperalgesia at each of the specified times after administration was defined as: […]
Additionally, 10 mg/kg of pregabalin (Kemprotec, Ltd., Middlesbrough, UK), an anticonvulsant accepted for relief of particular neuropathic pain, in vehicle and the vehicle alone (0.5% weight/volume methylcellulose (400cP, Wako Pure Chemical Industries, Ltd.)/aqueous solution) were orally administered as controls. […] Ten rats that underwent partial ligation of the left sciatic nerve were used for each treatment group. Dunnett's test was conducted for the % reversal; values with p<0.05 were considered to be statistically significant.
Additionally, as a control the rats underwent sham surgery in which an identical surgical procedure was followed with regard to the right thigh but the sciatic nerve was neither manipulated nor ligated.
Response to Mechanical Stimuli as an Assessment of Mechanical Hyperalgesia: The paw pressure assay was used to assess mechanical hyperalgesia. […] Biochem. and Behavior 31:451-455 (1988). The maximum weight that could be applied to the hind paw was set at 250 g and the end point was taken as complete withdrawal of the paw. PWT was determined once for each rat at each time point and either only the affected (ipsilateral) paw was tested, or both the ipsilateral and contralateral (non-injured) paw were tested.

[2] = tested on: MIA-induced osteoarthritis pain; assay: MIA-induced osteoarthritis model, weight bearing difference (WBD) test; assay type: in vivo; conditions: rat MIA, oral 3 mg/kg
Text: Osteoarthritis Pain: To assess the actions of a Compound of Formula (I) for the treatment or prevention of osteoarthritis pain, the rat monosodium iodo-acetate (MIA, i.e., sodium 2-iodoacetate) induced osteoarthritis model was used. Intra-articular injection of MIA causes joint degeneration characterized by osteolysis and swelling, with displacement of the patella, and reductions in bone mineral content and bone mineral density (Pomonis et al., “Development and pharmacological characterization of a rat model of osteoarthritis pain,” Pain 114: 339-346 (2005)). Under isoflurane anaesthesia, an intra-articular injection of 2 mg of MIA (Sigma-Aldrich) in 50 μl of saline was administered through the infrapatellar ligament of the knee joint of the right hind leg of the male, 6 week old Crl:CD(SD) rats. Control rats received an intra-articular injection of 50 μl of saline into the knee joint of the right hind leg. The left knee joint of all rats was untreated. […] Thus, in the assessment for osteoarthritis pain relief through gripping capability determinations, the 24 hour time point was the start of the next day when drug-in-vehicle was again orally administered (24 hours after the prior administration) for certain dosages. […] Weight Bearing Difference Test as an Assessment of Osteoarthritis Related Pain: The weight bearing difference test provides an accepted assessment of the efficacy of clinically useful analgesic drugs with respect of osteoarthritis related pain (see Pomonis et al. (2005)). WBD was assessed using a Linton Incapacitance Tester (Linton Instrumentation, Norfolk, UK). Rats were placed on the apparatus so that they were standing on their hind legs, and allowed to acclimate to the apparatus. When stationary, the weight born on each leg was measured over a 3s period. Three readings were taken for each rat at each time point; the average of the three readings was used for data analysis. WBD was expressed as “% WR”, i.e., the percentage of weight born on the MIA-injected right hind leg, using the following formula: [formula] where WR is the weight on the right hind leg and WL is the weight on the left (untreated) hind leg. […] The “% WRR”, i.e., the percentage reversal of the % WR impediment occurring post-MIA injection, was determined for each dosage at each time point using the following formula: [formula] where (% WR)Post-Drug is the % WR determined at each post-oral-administration time-point for each dose of each administered substance, (% WR)Pre-Drug is the % WR determined pre-oral-administration of each administered substance, and (% WR)Control Rat is the % WR determined for control rats (receiving the saline injection into the right hind leg knee joint). With the exception of the controls (i.e., celecoxib, vehicle) where the student's t-test was used, Dunnett's test was conducted for the % WRR.

[3] = tested on: MIA-induced osteoarthritis pain; assay: MIA-induced osteoarthritis model, grip force test; assay type: in vivo, rat; conditions: for % GFR [mean]: rat MIA, grip force, oral 3 mg/kg
Text: Osteoarthritis Pain: To assess the actions of a Compound of Formula (I) for the treatment or prevention of osteoarthritis pain, the rat monosodium iodo-acetate (MIA, i.e., sodium 2-iodoacetate) induced osteoarthritis model was used. Intra-articular injection of MIA causes joint degeneration characterized by osteolysis and swelling, with displacement of the patella, and reductions in bone mineral content and bone mineral density (Pomonis et al., “Development and pharmacological characterization of a rat model of osteoarthritis pain,” Pain 114: 339-346 (2005)). Under isoflurane anaesthesia, an intra-articular injection of 2 mg of MIA (Sigma-Aldrich) in 50 μl of saline was administered through the infrapatellar ligament of the knee joint of the right hind leg of the male, 6 week old Crl:CD(SD) rats. Control rats received an intra-articular injection of 50 μl of saline into the knee joint of the right hind leg. The left knee joint of all rats was untreated. Two weeks after MIA injection, rats were assessed for osteoarthritis pain related-behaviors immediately prior to and 1, 3, 5, 7, and 24 hours after oral drug-in-vehicle administration (for day 1) by determining their weight-bearing capabilities, via the weight bearing difference (WBD) test, and their gripping capabilities, via the grip force test, each as described below. Thus, in the assessment for osteoarthritis pain relief through gripping capability determinations, the 24 hour time point was the start of the next day when drug-in-vehicle was again orally administered (24 hours after the prior administration) for certain dosages. On days 2, 3, and 4, gripping capability response was determined 3 and 24 hours thereafter.
The grip force (GF) of the hind legs was assessed using a Animal Grip Strength System (San Diego Instruments, San Diego, Calif.). Rats were gently restrained and allowed to grasp the wire mesh strain gauge with their hind legs. The animals were then moved in a rostral-caudal direction until they let go of the gauge. The force (in g) at which the rat let go was recorded. Each animal was tested twice at approximately 3-10 minute intervals at each time point and the average of the two readings was used for the GF in data analysis.
Grip force, normalized to account for the weight of each animal, was expressed as “GF/B”, i.e., the ratio of GF to body weight, where GF is the grip force in grams and B is the body weight of the animal in kg. The “% GFR”, i.e., the percentage reversal of the (normalized) grip force impediment occurring post-MIA injection, was determined for each dosage at each time point using the following formula:
[formula] where (GF/B)Drug is the GF/B determined at each post-oral-administration time-point for each dose of each substance administered to MIA-injected animals, (GF/B)Vehicle is the GF/B determined at each post-oral-administration time-point for the vehicle control administered to MIA-injected animals, and (GF/B)Control Rat is the GF/B determined for control rats (saline-injected animals receiving orally-administered vehicle only). With the exception of the controls (i.e., celecoxib, vehicle) where the student's t-test was used, Dunnett's test was conducted for the % GFR. In either instance, values with p <0.05 were considered to be statistically significant.

CC(C)C[C@H](CN)CC(=O)O [pregabalin, reference compound]
maximum analgesic efficacy relative to the Example 10 product at 10 mg/kg ([1]; 24.73% reversal (10 mg/kg, 3 h, day 1) as share of the 34.17% reversal of the product at 10 mg/kg): about 72% | % Reversal [mean ± SEM] ([1]; pregabalin control 10 mg/kg oral once daily, 1 hours (day 2) after administration): 16.74 ± 4.23 % | % Reversal [mean ± SEM] ([1]; pregabalin control 10 mg/kg oral once daily, 1 hours (day 3) after administration): 17.16 ± 6.64 % | % Reversal [mean ± SEM] ([1]; pregabalin control 10 mg/kg oral once daily, 3 hours (day 2) after administration): 23.21 ± 2.30 % | % Reversal [mean ± SEM] ([1]; pregabalin control 10 mg/kg oral once daily, 3 hours (day 3) after administration): 26.56 ± 4.95 % | % Reversal [mean ± SEM] ([1]; pregabalin control 10 mg/kg oral once daily, 24 hours (0 hrs day 2) after administration): −2.84 ± 4.74% | % Reversal [mean ± SEM] ([1]; pregabalin control 10 mg/kg oral once daily, 24 hours (0 hrs day 3) after administration): 1.70 ± 4.29% | % Reversal [mean ± SEM] ([1]; pregabalin control 10 mg/kg oral once daily, 24 hours (0 hrs day 4) after administration): −3.67 ± 2.66% | % Reversal [mean ± SEM] ([1]; pregabalin control 10 mg/kg oral, 1 hours (day 1) after administration): 24.05 ± 6.46 % | % Reversal [mean ± SEM] ([1]; pregabalin control 10 mg/kg oral, 3 hours (day 1) after administration): 24.73 ± 4.12 % | % Reversal [mean ± SEM] ([1]; pregabalin control 10 mg/kg oral, 5 hours (day 1) after administration): 19.97 ± 4.79 % | % Reversal [mean ± SEM] ([1]; pregabalin control 10 mg/kg oral, 7 hours (day 1) after administration): 11.89 ± 3.16 % | % reversal of neuropathic hyperalgesia ([1]; rat Seltzer model, oral 10 mg/kg, 3 h after day 1 administration (maximum)): 24.73%

Cc1ccc(-c2cc(C(F)(F)F)nn2-c2ccc(S(N)(=O)=O)cc2)cc1 [Celecoxib, celecoxib, reference compound]
% WRR [mean] ([2]; 1 h after administration): 10.2^† % | % WRR [mean] ([2]; 1 h after administration, listed as celecoxib): 10.2% | % WRR [mean] ([2]; 3 h after administration): 27.8^†† % | % WRR [mean] ([2]; 3 h after administration, listed as celecoxib): 27.8% | % WRR [mean] ([2]; 5 h after administration): 14.1^†† % | % WRR [mean] ([2]; 5 h after administration, listed as celecoxib): 14.1% | % WRR [mean] ([2]; 7 h after administration): 6.0^† % | % WRR [mean] ([2]; 7 h after administration, listed as celecoxib): 6.0% | % WRR [mean] ([2]; 24 h after administration): 2.0% | maximum analgesic efficacy relative to the Example 10 product at 1 mg/kg ([3]; 30.0% reversal (3 mg/kg, 3 h, day 1) as share of the 45.2% reversal of the product at 1 mg/kg): about 66.4% | maximum analgesic efficacy relative to the Example 10 product at 3 mg/kg ([3]; 30.0% reversal (3 mg/kg, 3 h, day 1) as share of the 53.6% reversal of the product at 3 mg/kg): ~56.0% | % GFR [mean] ([3]; 1 h (day 1)): 22.6^†† % | % GFR [mean] ([3]; 3 h (day 1)): 30.0^†† % | % GFR [mean] ([3]; 3 h (day 1), listed as celecoxib): 30.0% | % GFR [mean] ([3]; 5 h (day 1)): 20.9^†† % | % GFR [mean] ([3]; 7 h (day 1)): 3.6% | % GFR [mean] ([3]; 24 h after day 1 dose (0 hrs day 2)): −3.6%
